Data taken from ChEMBL document CHEMBL1132590, “Aminopyridazines as acetylcholinesterase inhibitors” (J Med Chem, 1999).

Assays:
[1] = molecular target: T1, Acetylcholinesterase (Rattus norvegicus, UniProt P37136)
T1 sequence (P37136 whole entry): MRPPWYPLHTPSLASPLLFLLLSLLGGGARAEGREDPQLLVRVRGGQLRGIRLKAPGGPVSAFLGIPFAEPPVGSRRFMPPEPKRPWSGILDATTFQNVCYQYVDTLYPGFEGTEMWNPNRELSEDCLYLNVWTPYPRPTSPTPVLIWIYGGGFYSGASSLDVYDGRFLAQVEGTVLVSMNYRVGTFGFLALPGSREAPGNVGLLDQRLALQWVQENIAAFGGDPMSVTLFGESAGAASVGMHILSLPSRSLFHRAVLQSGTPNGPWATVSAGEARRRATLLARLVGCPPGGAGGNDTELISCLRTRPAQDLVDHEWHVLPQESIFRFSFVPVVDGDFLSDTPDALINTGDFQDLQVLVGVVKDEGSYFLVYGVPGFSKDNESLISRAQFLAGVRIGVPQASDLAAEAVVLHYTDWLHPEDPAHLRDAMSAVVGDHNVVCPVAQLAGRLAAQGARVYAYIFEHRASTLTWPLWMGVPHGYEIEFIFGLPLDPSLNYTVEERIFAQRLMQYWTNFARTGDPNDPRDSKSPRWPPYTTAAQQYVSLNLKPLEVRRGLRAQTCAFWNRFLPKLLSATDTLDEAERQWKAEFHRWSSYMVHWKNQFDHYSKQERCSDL
Description: In vitro inhibition of acetylcholinesterase in homogenized rat striatum.

[2] = molecular target: Acetylcholinesterase (Torpedo californica, UniProt P04058)
Description: In vitro inhibition of Torpedo californica acetylcholinesterase.

[3] = molecular target: Acetylcholinesterase (Homo sapiens, UniProt P22303); assay: Inhibitory concentration against acetylcholinesterase (AChE) from human erythrocytes
[4] = Ratio of inhibitory activity of ocmpound towards acetylcholinesterase from human erythrocytes over butyrylcholinesterase from human serum
[5] = molecular target: Cholinesterase (Homo sapiens, UniProt P06276); assay: Inhibitory concentration against Butyrylcholinesterase (BuChE) from human serum
Cholinesterase, sequence (P06276 whole entry): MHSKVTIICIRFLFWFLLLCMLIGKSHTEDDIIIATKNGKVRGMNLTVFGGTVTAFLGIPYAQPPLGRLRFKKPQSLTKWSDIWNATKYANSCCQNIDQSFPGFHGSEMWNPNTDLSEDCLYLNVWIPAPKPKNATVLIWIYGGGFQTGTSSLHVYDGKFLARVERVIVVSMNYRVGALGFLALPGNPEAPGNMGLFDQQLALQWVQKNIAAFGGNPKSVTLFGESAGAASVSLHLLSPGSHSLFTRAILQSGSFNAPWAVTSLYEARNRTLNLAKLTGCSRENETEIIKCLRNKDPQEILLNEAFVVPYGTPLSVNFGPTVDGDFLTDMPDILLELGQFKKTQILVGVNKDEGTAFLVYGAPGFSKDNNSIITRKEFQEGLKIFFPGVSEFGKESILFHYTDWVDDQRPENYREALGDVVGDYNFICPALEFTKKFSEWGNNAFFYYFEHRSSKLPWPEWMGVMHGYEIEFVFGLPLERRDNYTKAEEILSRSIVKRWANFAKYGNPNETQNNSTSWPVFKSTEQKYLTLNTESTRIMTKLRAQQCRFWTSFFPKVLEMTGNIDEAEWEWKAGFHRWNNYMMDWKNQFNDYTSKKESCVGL

Acetylcholinesterase (Torpedo californica, UniProt P04058), sequence (P04058 whole entry): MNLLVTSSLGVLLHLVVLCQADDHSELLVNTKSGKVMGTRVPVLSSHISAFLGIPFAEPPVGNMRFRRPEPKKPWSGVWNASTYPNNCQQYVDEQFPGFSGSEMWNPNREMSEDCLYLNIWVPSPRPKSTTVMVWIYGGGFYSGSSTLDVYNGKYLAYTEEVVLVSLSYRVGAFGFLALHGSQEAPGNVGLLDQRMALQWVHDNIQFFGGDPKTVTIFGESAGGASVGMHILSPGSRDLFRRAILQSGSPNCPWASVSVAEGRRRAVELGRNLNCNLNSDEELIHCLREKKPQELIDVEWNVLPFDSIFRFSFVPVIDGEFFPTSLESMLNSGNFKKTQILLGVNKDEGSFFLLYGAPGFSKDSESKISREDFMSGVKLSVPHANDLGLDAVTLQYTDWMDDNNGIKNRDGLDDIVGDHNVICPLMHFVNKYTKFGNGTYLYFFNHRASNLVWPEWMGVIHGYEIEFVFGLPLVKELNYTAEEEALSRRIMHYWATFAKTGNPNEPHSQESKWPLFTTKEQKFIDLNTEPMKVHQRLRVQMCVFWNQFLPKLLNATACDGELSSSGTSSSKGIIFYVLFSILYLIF
Acetylcholinesterase (Homo sapiens, UniProt P22303), sequence (P22303 whole entry): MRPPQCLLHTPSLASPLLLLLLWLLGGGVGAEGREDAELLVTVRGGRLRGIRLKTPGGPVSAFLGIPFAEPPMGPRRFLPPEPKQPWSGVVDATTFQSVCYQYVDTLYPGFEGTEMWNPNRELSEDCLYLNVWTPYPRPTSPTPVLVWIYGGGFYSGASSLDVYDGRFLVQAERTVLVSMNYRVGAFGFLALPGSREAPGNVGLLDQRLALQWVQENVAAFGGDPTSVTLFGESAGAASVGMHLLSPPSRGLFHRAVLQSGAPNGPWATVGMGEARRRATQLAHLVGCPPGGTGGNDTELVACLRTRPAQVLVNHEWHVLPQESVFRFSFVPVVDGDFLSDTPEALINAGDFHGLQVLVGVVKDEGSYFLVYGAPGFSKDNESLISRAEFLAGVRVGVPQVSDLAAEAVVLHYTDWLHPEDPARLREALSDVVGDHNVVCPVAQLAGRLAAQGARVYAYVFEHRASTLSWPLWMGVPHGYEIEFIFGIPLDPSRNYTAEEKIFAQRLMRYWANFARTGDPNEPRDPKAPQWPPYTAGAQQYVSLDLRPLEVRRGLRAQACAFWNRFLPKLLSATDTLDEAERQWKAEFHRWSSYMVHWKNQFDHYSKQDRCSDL

c1ccc(C2=NNC(NCCN3CCCCC3)=NC2)cc1
IC50 [1]: 47 µM

c1ccc(-c2nnc(NCCN3CCCCC3)s2)cc1
IC50 [1]: 54 µM

Nc1cc(-c2ccccc2)nnc1NCCN1CCOCC1
IC50 [1]: 270 µM

CN(CCCCNc1ccc(-c2ccccc2)nn1)Cc1ccccc1
IC50 [2]: 11 µM

c1ccc(CN2CCC(CCNc3ccc(-c4ccccc4)nn3)CC2)cc1
IC50 [3]: 0.14 µM
Ratio [4]: 5
IC50 [5]: 0.7 µM
IC50 [2]: 0.12 µM

c1ccc(-c2ccc(NCCN3CCc4ccccc4C3)nn2)cc1
IC50 [2]: 83 µM

c1ccc(-c2ccc(NCCCN3CCc4ccccc4C3)nn2)cc1
IC50 [2]: 35 µM

FC(F)(F)c1cc(-c2ccccc2)nnc1NCCN1CCOCC1
IC50 [1]: 740 µM

c1ccc(-c2cc(-c3ccccc3)c(NCCN3CCOCC3)nn2)cc1
IC50 [1]: 260 µM

CCN1CCCC1CNc1ccc(-c2ccccc2)nn1 (configuration not stated)
IC50 [2]: 62 µM

CN(CCCCCNc1ccc(-c2ccccc2)nn1)Cc1ccccc1
IC50 [3]: 0.93 µM
Ratio [4]: 0.36
IC50 [5]: 0.34 µM
IC50 [2]: 0.74 µM

c1ccc(CN2CCC(CNc3ccc(-c4ccccc4)nn3)CC2)cc1
IC50 [2]: 5.6 µM

CN(CCNc1ccc(-c2ccccc2)nn1)Cc1ccccc1
IC50 [2]: 170 µM

c1ccc(-c2ccc(NCCN3CCCCC3)nn2)cc1
IC50 [1]: 13 µM
IC50 [2]: 71 µM

c1ccc(-c2ncc(NCCN3CCCCC3)nn2)cc1
IC50 [1]: 57 µM

Cc1cc(-c2ccccc2)nnc1NCCN1CCOCC1
IC50 [1]: 85 µM

CN(CCCNc1ccc(-c2ccccc2)nn1)Cc1ccccc1
IC50 [2]: 13 µM

Cc1cc(-c2ccc(Cl)cc2)nnc1NCCN1CCCCC1
IC50 [1]: 1.3 µM

Cc1cc(-c2ccc(Cl)cc2)nnc1NCCN1CCOCC1
IC50 [1]: 34 µM

c1ccc(-c2cnc(NCCN3CCCCC3)nn2)cc1
IC50 [1]: 60 µM

OCc1cc(-c2ccccc2)nnc1NCCN1CCOCC1
IC50 [1]: 440 µM

Cc1cc(-c2ccc3c(c2)OCO3)nnc1NCCN1CCCCC1
IC50 [1]: 1 µM

N#Cc1cc(-c2ccccc2)nnc1NCCN1CCOCC1
IC50 [1]: > 100 µM

c1ccc(-c2ccc(NCCN3CCOCC3)nn2)cc1
IC50 [1]: > 1000 µM
IC50 [2]: 800 µM

c1ccc(-c2cnc(NCCN3CCCCC3)nc2)cc1
IC50 [1]: > 100 µM

c1ccc(-c2ccc(NCCCN3CCOCC3)nn2)cc1
IC50 [2]: 410 µM

c1ccc(CN2CCC(Nc3ccc(-c4ccccc4)nn3)CC2)cc1
IC50 [2]: 65 µM

c1ccc(-c2ccc(NCCCCN3CCc4ccccc4C3)nn2)cc1
IC50 [2]: 15 µM

c1ccc(-c2ccc(NCCCCCN3CCc4ccccc4C3)nn2)cc1
IC50 [3]: 47 µM
Ratio [4]: 0.0066
IC50 [5]: 0.31 µM
IC50 [2]: 10 µM

c1ccc(-c2ccc(NCCN3CCCCC3)nc2)cc1
IC50 [1]: 70 µM

Cc1cc(-c2ccccc2)nnc1NCCN1CCCCC1
IC50 [1]: 5.4 µM
